Data on 4 compounds can be found in patent publication US20210008161A1, “METHODS AND COMPOSITIONS FOR IMPROVED HOMOLOGY DIRECTED REPAIR” (CRISPR THERAPEUTICS AG, priority 2019, published 2021).

Experiment [1] concerns HEK293 T cells. Put plainly: GFP to BFP fluorescent reporter assay of HDR efficiency (AAVS1 locus). Format: cell-based, human. The method, then: The effect of DNA PK inhibition by Nu7441 correction of a DSB by the NHEJ pathway (e.g., introduce an indel at the DSB site) or HDR pathway (e.g., introduce a gene mutation encoded by a homology donor at the DSB site) was assessed using the reporter system described in Example 1. In this case gene-editing was evaluated in HEK293 T cells expressing GFP in the AAVS1 locus. To introduce a gene edit that converts GFP to BFP, cells were electroporated with ribonucleoprotein (RNP) comprised of Cas9 and gRNA1 (GFP target sequence identified by SEQ ID NO: 9; sgRNA spacer sequence identified by SEQ ID NO: 10) or gRNA2 (GFP target sequence identified by SEQ ID NO: 11; sgRNA spacer identified by SEQ ID NO: 12) that targets the GFP gene encoded in the AAVS1 locus. The cells were also transfected with ssODNs that encoded the gene correction necessary to convert GFP to BFP and homology arms complimentary to the sequence upstream and downstream of the target gene cut site. The efficiency of HDR repair was determined by measuring the level of cell BFP fluorescence. The efficiency of cutting (indel information) was monitored by TIDE analysis.
Shown in FIGS. 2A-2B is a comparison of HDR editing efficiency for cells treated with Nu7441, SCR7, or RS-1. Shown in FIG. 2A are cells were electroporated with RNP comprising Cas9 and gRNA1 (GFP target sequence shown in SEQ ID NO: 9; sgRNA spacer sequence identified by SEQ ID NO: 10). 2×10^5 cells were edited with 1 μM Cas9 and 1.5 μM gRNA1. The cells were transfected with four different ssODNs. These included ssODN 1067 (SEQ ID NO: 29) and ssODN 1069 (SEQ ID NO: 31) that are complimentary to the DNA strand containing the PAM sequence and ssODN 1068 (SEQ ID NO: 30) and ssODN 1070 (SEQ ID NO: 32) that are complimentary to the DNA strand not containing the PAM sequence. Cells were edited with 100 μM ssODN. A concentrated stock solution of each inhibitor was prepared in DMSO and diluted to a final concentration of 2.5 μM Nu7441, 1.25 μM SCR7, or 10 μM RS-1. HDR efficiency was compared relative to treatment with DMSO alone or to treatment with RNP-only.
Shown in FIG. 2B are cells were electroporated with RNP comprising Cas9 and gRNA2 (GFP target sequence shown in SEQ ID NO: 11; sgRNA spacer sequence shown in SEQ ID NO: 12). The cells were transfected with four different ssODNs. These included ssODN 1061 (SEQ ID NO: 33) and ssODN 1063 (SEQ ID NO: 35) that are complimentary to the DNA strand containing the PAM sequence and ssODN 1062 (SEQ ID NO: 34) and ssODN 1064 (SEQ ID NO: 36) that are complimentary to the DNA strand not containing the PAM sequence.
Background: Reporter assays use an easily measured gene product as a stand-in for the process of interest.

Experiment [2] relates to HEK293 T cells. In words: HDR gene-editing at GSD1a locus with ssODN homology donors. Format: cell-based, human. The note with it: for HDR efficiency: 1.25 μM SCR7 or 10 μM RS-1, FIG. 3. The method, then:
2×10^5 cells were edited with 1 μM Cas9 and 1.5 μM gRNA. The cells were transfected with two different ssODNs homology donors: 93-50 (SEQ ID NO: 39) or 25-100 (SEQ ID NO: 40). These two ssODN donors contain homology arms spanning both sides of the double-stranded break induced by the Cas9-guide and facilitate correction of a point mutation in the G6PC gene sequence by HDR. Cells were edited with 100 μM ssODN. The cells were treated with 2.5 μM Nu7441, 1.25 μM SCR7, or 10 μM RS-1 and the effect on HDR efficiency was evaluated.

A further experiment has as its system CD34-expressing LT-HSPCs. In words: HDR insertion of AAV-delivered GFP donor into HBB locus (GFP fluorescence). Format: cell-based, human. The method, then: Frozen CD34-expressing LT-HSPCs derived from plerixafor (i.e., Mozibil®)+GCSF-dual mobilized peripheral blood obtained from healthy human donors were purchased from a commercial vendor. LT-HSPCs were maintained in culture media comprised of the reagents shown in Table 4 and were incubated at 37° C., 5% carbon dioxide, 4% oxygen. […] 2×10^5 cells were edited with 3 μg Cas9 and 3 μg gRNA. The target gene sequence (including target sequence with PAM), R02 spacer sequence, and R02 sgRNA sequence are identified in Table 3.
The cells were transfected with a dsDNA homology donor encoding GFP under a SFFV promoter (SEQ ID NO: 60) that was delivered by AAV (SEQ ID NO: 56). […] The HDR efficiency was determined by measuring the level of GFP fluorescence in the cells following electroporation. To determine the effect of 53BP1 inhibition on HDR efficiency, the 53BP1 inhibitor i53 was introduced as an mRNA-encoded protein to the cells during electroporation with Cas9/gRNA RNP and AAV DNA that serves as a donor for homology directed repair.
The effect of 53BP1 inhibition on HDR efficiency was compared to other mRNA-encoded proteins that inhibit the NHEJ pathway. These included the proteins CYREN1 and CYREN2 that inhibit Ku70/80, a heterodimer that binds DNA blunt ends to prevent processing of 3′ single-stranded DNA tails necessary for HDR repair. Cells were electroporated with RNP, an AAV-GFP homology donor and mRNA encoding either i53 (mRNA ORF shown in SEQ ID NO: 69), CYREN1, or CYREN2.
The effect of treatment with i53 and Nu7441 was compared for improving efficiency of HDR repair of the HBB locus. Cells were treated with different doses of Nu7441 or with mRNA encoding i53 (ORF shown by SEQ ID NO: 69).

Experiment [3] concerns human LT-HSPCs administered to cKit mice. In words: Erythroid cell enucleation in mouse bone marrow. Format: in vivo. The following applies: bone marrow 16 weeks; vs cells treated with RNP-only or AAV-only; FIG. 28. The method, then:
The functionality of the hematopoietic compartment in recipient mice was evaluated by measuring erythroid cell enucleation in bone marrow collected at 16 weeks post-engraftment. Mammalian erythrocytes extrude their nucleus prior to entering circulation. Human CD34-expressing LT-HSPCs are expected to differentiate into erythrocytes following engraftment, however the efficiency of enucleation can be low. Assessment of erythroid cell enucleation provides a measure of the ability of edited CD34 expressing cells to differentiate into erythroid cells compared to the unedited controls (i.e., ability to differentiate into functional cell types). Percent enucleation was compared for LT-HSPCs gene edited with Cas9/gRNA RNP and AAV given pre-EP or post-EP. […] Additionally, levels of enucleation were compared for LT-HSPCs gene edited with RNP+AAV in the presence of i53 or Nu7441.

Where [4] appears, read: gRNA1, ssODN 1067-1070, 2.5 μM Nu7441, 1.25 μM SCR7 or 10 μM RS-1, vs DMSO, FIG. 2A.
Where [5] appears, read: 0.75 μg mRNA encoding i53, 5 μM Nu7441, control mRNA DM, FIG. 6C.

On to `O=c1cc(N2CCOCC2)oc2c(-c3cccc4c3sc3ccccc34)cccc12` [Nu7441], for which the HDR efficiency result with HEK293 T cells [1] (setting [4]) was “improved”; in the experiment with HEK293 T cells [1] (gRNA2, ssODN 1061-1064, 2.5 μM Nu7441), “improved”; in the experiment on CD34-expressing LT-HSPCs (setting [5]) it was “comparable increase”. The “fold increase in HDR efficiency” value with HEK293 T cells [2] (2.5 μM Nu7441, over DMSO alone, FIG. 3) is reported as “approximately 1.7 fold”. Also, the “levels of erythroid cell enucleation” value in experiment [3] was “similar”.
For `O=C(Nc1ccc(Br)cc1)c1ccc(Br)c(S(=O)(=O)NCc2ccccc2)c1` [RS-1], the HDR efficiency result in the experiment with HEK293 T cells [1] (setting [4]) is given as “no improvement”; with HEK293 T cells [2] it was “no effect”.
`O=c1[nH]c(=S)[nH]c(N=Cc2ccccc2)c1N=Cc1ccccc1` [SCR7]: the HDR efficiency result in the experiment with HEK293 T cells [1] (setting [4]) was “no improvement”; with HEK293 T cells [2] it was “no effect”.
With “i53: polypeptide inhibitor of 53BP1 (SEQ ID NO: 70), introduced as an mRNA-encoded protein (ORF SEQ ID NO: 69)”, the HDR efficiency result is listed as “comparable increase” in the experiment with CD34-expressing LT-HSPCs (setting [5]) and “increased” in the experiment with CD34-expressing LT-HSPCs (mRNA-encoded proteins, i53 mRNA at 0.3 μg or 1 μg, over RNP+AAV-only, FIG. 6B). For the same compound, the “HDR efficiency at each dose” value in the experiment on CD34-expressing LT-HSPCs (0.5, 1, and 2 μg i53 mRNA, FIG. 6A) is on record as “improved”. In addition, the “fold increase in HDR efficiency” value in the experiment on CD34-expressing LT-HSPCs (GFP donor into HBB locus, mRNA encoding i53, over RNP+AAV-only, FIG. 6A) is given as “approximately 1.3 fold”. For the same compound, the “levels of erythroid cell enucleation” value in experiment [3] was “similar”.
